Measurements reported in the NIST ThermoML archive (doi:10.1016/j.jct.2010.04.013).
Numbers after ± are expanded uncertainties.

Assay: mn = molality of the nth substance listed, in mol/kg
Details: 101 kPa, Liquid; for mass density: Vibrating tube method; for speed of sound: Pulse-echo method

O=S(=O)([O-])C(F)(F)F.[Na+] [sodium trifluoromethanesulfonate] + CO
mass density (283.15 K, m1 = 0.04581): 805.004 ± 0.17 kg/m3
mass density (283.15 K, m1 = 0.05858): 806.247 ± 0.17 kg/m3
mass density (283.15 K, m1 = 0.07409): 807.746 ± 0.17 kg/m3
mass density (283.15 K, m1 = 0.08825): 809.117 ± 0.17 kg/m3
mass density (283.15 K, m1 = 0.1028): 810.527 ± 0.17 kg/m3
mass density (283.15 K, m1 = 0.1172): 811.93 ± 0.17 kg/m3
mass density (283.15 K, m1 = 0.1463): 814.771 ± 0.17 kg/m3
mass density (283.15 K, m1 = 0.1743): 817.509 ± 0.17 kg/m3
mass density (283.15 K, m1 = 0.2027): 820.305 ± 0.17 kg/m3
mass density (283.15 K, m1 = 0.2301): 823.038 ± 0.17 kg/m3
mass density (283.15 K, m1 = 0.2574): 825.732 ± 0.17 kg/m3
mass density (283.15 K, m1 = 0.2861): 828.58 ± 0.17 kg/m3
mass density (288.15 K, m1 = 0.04581): 800.315 ± 0.17 kg/m3
mass density (288.15 K, m1 = 0.05858): 801.557 ± 0.17 kg/m3
mass density (288.15 K, m1 = 0.07409): 803.057 ± 0.17 kg/m3
mass density (288.15 K, m1 = 0.08825): 804.427 ± 0.17 kg/m3
mass density (288.15 K, m1 = 0.1028): 805.836 ± 0.17 kg/m3
mass density (288.15 K, m1 = 0.1172): 807.238 ± 0.17 kg/m3
mass density (288.15 K, m1 = 0.1463): 810.077 ± 0.17 kg/m3
mass density (288.15 K, m1 = 0.1743): 812.812 ± 0.17 kg/m3
mass density (288.15 K, m1 = 0.2027): 815.606 ± 0.17 kg/m3
mass density (288.15 K, m1 = 0.2301): 818.338 ± 0.17 kg/m3
mass density (288.15 K, m1 = 0.2574): 821.028 ± 0.17 kg/m3
mass density (288.15 K, m1 = 0.2861): 823.872 ± 0.17 kg/m3
mass density (293.15 K, m1 = 0.04581): 795.62 ± 0.17 kg/m3
mass density (293.15 K, m1 = 0.05858): 796.863 ± 0.17 kg/m3
mass density (293.15 K, m1 = 0.07409): 798.363 ± 0.17 kg/m3
mass density (293.15 K, m1 = 0.08825): 799.733 ± 0.17 kg/m3
mass density (293.15 K, m1 = 0.1028): 801.14 ± 0.17 kg/m3
mass density (293.15 K, m1 = 0.1172): 802.543 ± 0.17 kg/m3
mass density (293.15 K, m1 = 0.1463): 805.377 ± 0.17 kg/m3
mass density (293.15 K, m1 = 0.1743): 808.112 ± 0.17 kg/m3
mass density (293.15 K, m1 = 0.2027): 810.904 ± 0.17 kg/m3
mass density (293.15 K, m1 = 0.2301): 813.634 ± 0.17 kg/m3
mass density (293.15 K, m1 = 0.2574): 816.321 ± 0.17 kg/m3
mass density (293.15 K, m1 = 0.2861): 819.161 ± 0.17 kg/m3
speed of sound (298.15 K, m1 = 0.04581): 1102.3 ± 1.2 m/s
speed of sound (298.15 K, m1 = 0.05858): 1102.5 ± 1.2 m/s
speed of sound (298.15 K, m1 = 0.07409): 1103 ± 1.2 m/s
speed of sound (298.15 K, m1 = 0.08825): 1103.2 ± 1.2 m/s
speed of sound (298.15 K, m1 = 0.1028): 1103.4 ± 1.2 m/s
speed of sound (298.15 K, m1 = 0.1172): 1103.6 ± 1.2 m/s
speed of sound (298.15 K, m1 = 0.1463): 1104 ± 1.2 m/s
speed of sound (298.15 K, m1 = 0.1743): 1104.6 ± 1.2 m/s
speed of sound (298.15 K, m1 = 0.2027): 1105 ± 1.2 m/s
speed of sound (298.15 K, m1 = 0.2301): 1105.2 ± 1.2 m/s
speed of sound (298.15 K, m1 = 0.2574): 1105.4 ± 1.2 m/s
speed of sound (298.15 K, m1 = 0.2861): 1105.6 ± 1.2 m/s
mass density (298.15 K, m1 = 0.04581): 790.91 ± 0.17 kg/m3
mass density (298.15 K, m1 = 0.05858): 792.154 ± 0.17 kg/m3
mass density (298.15 K, m1 = 0.07409): 793.657 ± 0.17 kg/m3
mass density (298.15 K, m1 = 0.08825): 795.022 ± 0.17 kg/m3
mass density (298.15 K, m1 = 0.1028): 796.431 ± 0.17 kg/m3
mass density (298.15 K, m1 = 0.1172): 797.833 ± 0.17 kg/m3
mass density (298.15 K, m1 = 0.1463): 800.668 ± 0.17 kg/m3
mass density (298.15 K, m1 = 0.1743): 803.401 ± 0.17 kg/m3
mass density (298.15 K, m1 = 0.2027): 806.19 ± 0.17 kg/m3
mass density (298.15 K, m1 = 0.2301): 808.917 ± 0.17 kg/m3
mass density (298.15 K, m1 = 0.2574): 811.601 ± 0.17 kg/m3
mass density (298.15 K, m1 = 0.2861): 814.439 ± 0.17 kg/m3
mass density (303.15 K, m1 = 0.04581): 786.191 ± 0.18 kg/m3
mass density (303.15 K, m1 = 0.05858): 787.428 ± 0.18 kg/m3
mass density (303.15 K, m1 = 0.07409): 788.931 ± 0.18 kg/m3
mass density (303.15 K, m1 = 0.08825): 790.305 ± 0.17 kg/m3
mass density (303.15 K, m1 = 0.1028): 791.701 ± 0.17 kg/m3
mass density (303.15 K, m1 = 0.1172): 793.105 ± 0.17 kg/m3
mass density (303.15 K, m1 = 0.1463): 795.947 ± 0.17 kg/m3
mass density (303.15 K, m1 = 0.1743): 798.671 ± 0.17 kg/m3
mass density (303.15 K, m1 = 0.2027): 801.46 ± 0.17 kg/m3
mass density (303.15 K, m1 = 0.2301): 804.185 ± 0.17 kg/m3
mass density (303.15 K, m1 = 0.2574): 806.867 ± 0.17 kg/m3
mass density (303.15 K, m1 = 0.2861): 809.7 ± 0.17 kg/m3
mass density (308.15 K, m1 = 0.04581): 781.448 ± 0.18 kg/m3
mass density (308.15 K, m1 = 0.05858): 782.688 ± 0.18 kg/m3
mass density (308.15 K, m1 = 0.07409): 784.175 ± 0.18 kg/m3
mass density (308.15 K, m1 = 0.08825): 785.561 ± 0.18 kg/m3
mass density (308.15 K, m1 = 0.1028): 786.964 ± 0.18 kg/m3
mass density (308.15 K, m1 = 0.1172): 788.352 ± 0.18 kg/m3
mass density (308.15 K, m1 = 0.1463): 791.201 ± 0.18 kg/m3
mass density (308.15 K, m1 = 0.1743): 793.913 ± 0.18 kg/m3
mass density (308.15 K, m1 = 0.2027): 796.713 ± 0.18 kg/m3
mass density (308.15 K, m1 = 0.2301): 799.436 ± 0.17 kg/m3
mass density (308.15 K, m1 = 0.2574): 802.106 ± 0.17 kg/m3
mass density (308.15 K, m1 = 0.2861): 804.938 ± 0.17 kg/m3
mass density (313.15 K, m1 = 0.04581): 776.675 ± 0.18 kg/m3
mass density (313.15 K, m1 = 0.05858): 777.918 ± 0.18 kg/m3
mass density (313.15 K, m1 = 0.07409): 779.409 ± 0.18 kg/m3
mass density (313.15 K, m1 = 0.08825): 780.79 ± 0.18 kg/m3
mass density (313.15 K, m1 = 0.1028): 782.194 ± 0.18 kg/m3
mass density (313.15 K, m1 = 0.1172): 783.59 ± 0.18 kg/m3
mass density (313.15 K, m1 = 0.1463): 786.428 ± 0.18 kg/m3
mass density (313.15 K, m1 = 0.1743): 789.143 ± 0.18 kg/m3
mass density (313.15 K, m1 = 0.2027): 791.938 ± 0.18 kg/m3
mass density (313.15 K, m1 = 0.2301): 794.66 ± 0.18 kg/m3
mass density (313.15 K, m1 = 0.2574): 797.321 ± 0.18 kg/m3
mass density (313.15 K, m1 = 0.2861): 800.15 ± 0.18 kg/m3

C[S+](C)[O-] [dimethyl sulfoxide] + [Mg+2].[O-][Cl+3]([O-])([O-])[O-].[O-][Cl+3]([O-])([O-])[O-]
mass density (293.15 K, m2 = 0): 1100.21 ± 0.23 kg/m3
mass density (298.15 K, m2 = 0): 1095.18 ± 0.23 kg/m3
mass density (303.15 K, m2 = 0): 1090.16 ± 0.23 kg/m3
mass density (313.15 K, m2 = 0): 1080.12 ± 0.23 kg/m3
mass density (323.15 K, m2 = 0): 1070.08 ± 0.23 kg/m3
mass density (333.15 K, m2 = 0): 1060.02 ± 0.22 kg/m3

C[S+](C)[O-] [dimethyl sulfoxide] + O=S(=O)([O-])C(F)(F)F.O=S(=O)([O-])C(F)(F)F.[Be+2]
mass density (293.15 K, m2 = 0): 1100.21 ± 0.23 kg/m3
mass density (298.15 K, m2 = 0): 1095.18 ± 0.23 kg/m3
mass density (303.15 K, m2 = 0): 1090.16 ± 0.22 kg/m3
mass density (313.15 K, m2 = 0): 1080.11 ± 0.22 kg/m3
mass density (323.15 K, m2 = 0): 1070.07 ± 0.22 kg/m3
mass density (333.15 K, m2 = 0): 1060.03 ± 0.22 kg/m3
